Measured values reported in ChEMBL document CHEMBL5465560, “Selectivity Literature for EUbOPEN Chemogenomic Library” (2024).

How the values were obtained:
[1] = target: Ephrin type-A receptor 7 (Homo sapiens) (UniProt Q15375); test: Selectivity interaction (Kinase panel (DSF assay)) EUB0001558a EPHA7
[2] = target: Tyrosine-protein kinase FRK (Homo sapiens) (UniProt P42685); test: Selectivity interaction (Upstate Kinase Profiler service (Millipore)) EUB0000056c FRK; conditions: at 1 µM
[3] = target: Cyclin-dependent kinase 3/Cyclin-C (Homo sapiens) (UniProt Q00526+P24863); test: Selectivity interaction (ProQinase) EUB0000171b CDK3; type: protein-complex assay
[4] = target: T1, Rhodopsin kinase GRK1 (Homo sapiens) (UniProt Q15835); test: Selectivity interaction (KinomeScan (DiscoverX)) EUB0000666a GRK1; conditions: at 10 µM
T1 sequence (whole entry): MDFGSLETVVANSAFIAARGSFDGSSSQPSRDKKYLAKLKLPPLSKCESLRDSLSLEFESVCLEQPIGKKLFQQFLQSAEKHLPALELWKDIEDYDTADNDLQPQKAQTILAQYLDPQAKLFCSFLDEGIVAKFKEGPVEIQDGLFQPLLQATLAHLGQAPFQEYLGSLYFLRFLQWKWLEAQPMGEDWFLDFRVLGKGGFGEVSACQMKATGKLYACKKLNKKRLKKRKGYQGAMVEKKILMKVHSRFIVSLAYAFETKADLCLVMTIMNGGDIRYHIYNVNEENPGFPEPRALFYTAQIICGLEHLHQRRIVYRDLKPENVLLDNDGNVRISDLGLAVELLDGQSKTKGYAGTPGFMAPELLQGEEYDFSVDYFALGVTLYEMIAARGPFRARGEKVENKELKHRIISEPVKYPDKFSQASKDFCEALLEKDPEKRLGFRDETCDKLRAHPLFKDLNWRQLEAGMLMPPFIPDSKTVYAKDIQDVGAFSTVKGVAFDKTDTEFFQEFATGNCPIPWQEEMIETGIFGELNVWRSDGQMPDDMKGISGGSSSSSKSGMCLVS

[5] = target: Cyclin-dependent kinase 2/cyclin E (Homo sapiens) (UniProt P24864+P24941+O96020); test: (§1) Selectivity interaction (Millipore kinase profiler) EUB0000124b CDK2; type: protein-complex assay; conditions: at 10 µM
[6] = target: Cyclin-dependent kinase 2/cyclin A (Homo sapiens) (UniProt P24941+P20248+P78396); test: as §1; type: protein-complex assay; conditions: at 10 µM
[7] = target: Ribosomal protein S6 kinase alpha-3 (Homo sapiens, UniProt P51812); test: Selectivity interaction (KinomeScan (DiscoverX)) EUB0000607a RPS6KA3; conditions: at 10 µM
[8] = target: T2, SNF-related serine/threonine-protein kinase (Homo sapiens) (UniProt Q9NRH2); test: Selectivity interaction (KinomeScan (DiscoverX)) EUB0000695a SNRK; conditions: at 100 nM
T2 sequence (whole entry): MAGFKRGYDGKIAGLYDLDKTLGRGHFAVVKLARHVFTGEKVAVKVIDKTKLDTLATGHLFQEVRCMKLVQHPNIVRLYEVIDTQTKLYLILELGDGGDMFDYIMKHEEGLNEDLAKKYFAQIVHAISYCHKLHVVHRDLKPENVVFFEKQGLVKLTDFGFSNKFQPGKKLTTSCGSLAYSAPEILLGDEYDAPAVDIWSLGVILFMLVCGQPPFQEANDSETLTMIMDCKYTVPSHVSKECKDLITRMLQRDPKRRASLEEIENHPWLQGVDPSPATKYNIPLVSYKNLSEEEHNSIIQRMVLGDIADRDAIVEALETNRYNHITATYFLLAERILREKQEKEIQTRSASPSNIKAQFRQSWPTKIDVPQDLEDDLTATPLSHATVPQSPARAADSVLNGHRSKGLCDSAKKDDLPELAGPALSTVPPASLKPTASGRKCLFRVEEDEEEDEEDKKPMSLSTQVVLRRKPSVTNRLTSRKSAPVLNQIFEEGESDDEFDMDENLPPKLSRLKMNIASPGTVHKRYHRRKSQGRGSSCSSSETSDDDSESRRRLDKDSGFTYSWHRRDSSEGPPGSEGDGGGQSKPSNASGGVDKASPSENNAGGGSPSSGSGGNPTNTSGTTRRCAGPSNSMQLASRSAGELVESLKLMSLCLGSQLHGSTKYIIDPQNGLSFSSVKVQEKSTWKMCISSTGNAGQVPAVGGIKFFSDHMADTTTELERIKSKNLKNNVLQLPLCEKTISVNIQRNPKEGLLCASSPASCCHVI

[9] = target: MAP kinase-interacting serine/threonine-protein kinase 2 (Homo sapiens, UniProt Q9HBH9); test: Selectivity interaction (Kinase panel (literature)) EUB0001199aCl MKNK2; conditions: at 1 µM
[10] = target: Fibroblast growth factor receptor 4 (Homo sapiens, UniProt P22455); test: Selectivity interaction (KinomeScan (DiscoverX)) EUB0000618a FGFR4; conditions: at 10 µM
Sequence of Fibroblast growth factor receptor 4 (P22455 22-802 limits assumed): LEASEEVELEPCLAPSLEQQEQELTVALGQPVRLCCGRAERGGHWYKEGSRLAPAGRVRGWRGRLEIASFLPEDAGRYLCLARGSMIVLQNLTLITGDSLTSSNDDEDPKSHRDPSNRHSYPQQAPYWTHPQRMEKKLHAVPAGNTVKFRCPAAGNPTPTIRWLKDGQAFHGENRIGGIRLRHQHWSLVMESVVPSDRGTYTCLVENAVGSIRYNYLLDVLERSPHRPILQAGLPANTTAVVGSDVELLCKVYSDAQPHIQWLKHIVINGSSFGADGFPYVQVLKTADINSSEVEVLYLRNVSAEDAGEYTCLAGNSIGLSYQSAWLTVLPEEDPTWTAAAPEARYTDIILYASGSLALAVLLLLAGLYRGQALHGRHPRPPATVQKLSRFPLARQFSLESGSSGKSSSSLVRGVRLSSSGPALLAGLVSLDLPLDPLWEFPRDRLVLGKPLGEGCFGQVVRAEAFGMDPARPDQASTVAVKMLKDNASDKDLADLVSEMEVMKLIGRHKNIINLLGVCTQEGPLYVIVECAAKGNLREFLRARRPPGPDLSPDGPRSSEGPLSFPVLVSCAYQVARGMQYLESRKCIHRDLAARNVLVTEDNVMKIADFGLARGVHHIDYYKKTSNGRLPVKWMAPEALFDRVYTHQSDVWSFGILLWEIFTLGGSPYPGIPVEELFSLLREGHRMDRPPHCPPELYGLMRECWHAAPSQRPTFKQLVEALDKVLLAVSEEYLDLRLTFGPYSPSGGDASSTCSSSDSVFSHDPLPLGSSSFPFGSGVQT

Sequence of Cyclin-dependent kinase 3/Cyclin-C (Homo sapiens) (P24863 whole entry, looked up): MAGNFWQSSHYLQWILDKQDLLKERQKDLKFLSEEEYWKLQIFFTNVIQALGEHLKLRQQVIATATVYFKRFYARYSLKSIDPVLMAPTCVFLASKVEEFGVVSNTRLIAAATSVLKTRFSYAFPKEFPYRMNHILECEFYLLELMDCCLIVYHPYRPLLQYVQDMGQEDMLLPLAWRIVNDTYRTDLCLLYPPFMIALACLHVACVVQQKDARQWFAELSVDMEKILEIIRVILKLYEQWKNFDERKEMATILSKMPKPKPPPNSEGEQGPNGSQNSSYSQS
Sequence of Cyclin-dependent kinase 3/Cyclin-C (Homo sapiens) (Q00526 whole entry, looked up): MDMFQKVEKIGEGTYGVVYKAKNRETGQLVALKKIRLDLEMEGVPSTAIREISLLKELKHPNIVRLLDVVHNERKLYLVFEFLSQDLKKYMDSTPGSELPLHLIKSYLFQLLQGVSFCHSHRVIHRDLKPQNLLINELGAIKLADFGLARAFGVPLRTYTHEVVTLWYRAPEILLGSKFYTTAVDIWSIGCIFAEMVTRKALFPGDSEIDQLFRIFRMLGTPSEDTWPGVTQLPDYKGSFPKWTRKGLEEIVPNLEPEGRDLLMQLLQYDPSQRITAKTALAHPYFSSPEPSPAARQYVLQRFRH
Sequence of Ribosomal protein S6 kinase alpha-3 (P51812 whole entry): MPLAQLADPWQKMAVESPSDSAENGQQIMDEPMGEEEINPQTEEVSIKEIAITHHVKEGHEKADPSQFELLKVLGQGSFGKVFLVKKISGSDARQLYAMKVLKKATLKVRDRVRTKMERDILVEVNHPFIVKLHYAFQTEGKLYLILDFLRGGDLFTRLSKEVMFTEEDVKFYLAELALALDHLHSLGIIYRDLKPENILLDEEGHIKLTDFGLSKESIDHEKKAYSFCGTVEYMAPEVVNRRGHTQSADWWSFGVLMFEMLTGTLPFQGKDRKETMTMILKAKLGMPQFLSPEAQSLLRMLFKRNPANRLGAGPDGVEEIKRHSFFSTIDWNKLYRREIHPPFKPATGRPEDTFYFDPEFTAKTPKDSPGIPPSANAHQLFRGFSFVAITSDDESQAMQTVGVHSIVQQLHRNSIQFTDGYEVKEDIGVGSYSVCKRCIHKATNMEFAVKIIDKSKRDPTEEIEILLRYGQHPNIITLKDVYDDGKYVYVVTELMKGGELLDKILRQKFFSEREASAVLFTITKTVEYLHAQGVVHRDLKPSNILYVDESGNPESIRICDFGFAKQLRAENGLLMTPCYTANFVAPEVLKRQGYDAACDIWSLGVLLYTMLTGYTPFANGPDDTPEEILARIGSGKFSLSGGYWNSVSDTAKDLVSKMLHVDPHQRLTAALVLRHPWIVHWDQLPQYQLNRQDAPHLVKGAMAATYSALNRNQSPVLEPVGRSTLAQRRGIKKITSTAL
Sequence of MAP kinase-interacting serine/threonine-protein kinase 2 (Q9HBH9 whole entry, looked up): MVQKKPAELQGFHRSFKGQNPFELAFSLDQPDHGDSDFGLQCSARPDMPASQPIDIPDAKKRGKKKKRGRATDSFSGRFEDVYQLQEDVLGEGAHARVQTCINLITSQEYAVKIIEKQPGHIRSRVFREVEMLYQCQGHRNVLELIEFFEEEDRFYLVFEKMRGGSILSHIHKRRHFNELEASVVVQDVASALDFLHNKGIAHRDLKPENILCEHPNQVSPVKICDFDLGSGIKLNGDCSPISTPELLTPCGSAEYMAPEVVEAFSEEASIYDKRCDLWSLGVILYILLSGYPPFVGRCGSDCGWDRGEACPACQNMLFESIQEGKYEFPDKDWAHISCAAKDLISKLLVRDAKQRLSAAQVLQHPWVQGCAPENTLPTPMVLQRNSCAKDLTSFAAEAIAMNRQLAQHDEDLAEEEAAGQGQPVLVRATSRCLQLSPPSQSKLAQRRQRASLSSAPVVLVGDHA
Sequence of Ephrin type-A receptor 7 (Homo sapiens) (Q15375 28-998 limits assumed): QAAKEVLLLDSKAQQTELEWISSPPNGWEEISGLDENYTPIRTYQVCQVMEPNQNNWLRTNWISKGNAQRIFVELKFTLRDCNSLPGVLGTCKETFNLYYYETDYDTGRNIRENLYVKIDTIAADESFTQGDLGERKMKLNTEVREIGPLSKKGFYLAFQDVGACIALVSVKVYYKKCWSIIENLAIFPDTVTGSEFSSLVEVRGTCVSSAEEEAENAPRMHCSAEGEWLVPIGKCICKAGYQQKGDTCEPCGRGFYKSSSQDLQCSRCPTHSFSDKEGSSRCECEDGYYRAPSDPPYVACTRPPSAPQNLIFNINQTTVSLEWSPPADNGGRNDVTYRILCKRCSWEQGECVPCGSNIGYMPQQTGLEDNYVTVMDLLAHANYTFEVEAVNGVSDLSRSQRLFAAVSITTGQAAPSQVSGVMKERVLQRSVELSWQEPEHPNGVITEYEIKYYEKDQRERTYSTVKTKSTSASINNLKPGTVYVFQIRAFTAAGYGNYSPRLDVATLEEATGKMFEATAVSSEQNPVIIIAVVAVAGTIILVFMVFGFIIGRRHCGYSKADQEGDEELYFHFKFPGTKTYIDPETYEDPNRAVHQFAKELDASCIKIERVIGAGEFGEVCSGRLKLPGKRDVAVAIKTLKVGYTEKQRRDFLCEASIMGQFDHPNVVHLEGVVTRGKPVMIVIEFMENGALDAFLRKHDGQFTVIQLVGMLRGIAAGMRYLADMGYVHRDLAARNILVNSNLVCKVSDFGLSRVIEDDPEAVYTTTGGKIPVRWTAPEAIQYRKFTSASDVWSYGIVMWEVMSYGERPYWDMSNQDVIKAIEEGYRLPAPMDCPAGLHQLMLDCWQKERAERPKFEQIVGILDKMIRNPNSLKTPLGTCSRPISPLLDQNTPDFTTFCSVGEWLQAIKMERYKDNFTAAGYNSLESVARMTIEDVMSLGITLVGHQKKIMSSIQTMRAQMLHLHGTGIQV
Sequence of Tyrosine-protein kinase FRK (Homo sapiens) (P42685 whole entry): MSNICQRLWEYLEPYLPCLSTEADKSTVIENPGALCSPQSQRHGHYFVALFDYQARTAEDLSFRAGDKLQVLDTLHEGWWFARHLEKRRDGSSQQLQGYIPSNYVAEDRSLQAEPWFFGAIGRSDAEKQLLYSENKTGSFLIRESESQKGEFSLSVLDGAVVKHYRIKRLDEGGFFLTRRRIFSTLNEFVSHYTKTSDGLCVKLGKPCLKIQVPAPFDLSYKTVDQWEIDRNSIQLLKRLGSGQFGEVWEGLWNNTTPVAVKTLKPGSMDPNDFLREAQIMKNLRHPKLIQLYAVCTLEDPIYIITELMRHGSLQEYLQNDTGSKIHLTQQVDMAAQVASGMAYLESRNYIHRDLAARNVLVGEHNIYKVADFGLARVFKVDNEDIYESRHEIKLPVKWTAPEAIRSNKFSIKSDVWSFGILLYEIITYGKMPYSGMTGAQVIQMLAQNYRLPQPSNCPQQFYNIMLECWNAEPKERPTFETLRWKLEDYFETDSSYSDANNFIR

## CC(C)(O)[C@H](F)CN1Cc2cc(NC(=O)c3cnn4cccnc34)c(N3CCOCC3)cc2C1=O
[1]
  dTM: -0.2 K

## Cc1ccc(-c2ccc3c(ccc4sc5c(c43)NC[C@@H](C)NC5=O)n2)cn1
[2]
  % of inhibition: 32%

## C=CC(=O)Nc1cccc(C(=O)Nc2ccc(Nc3cc(-c4[nH]c(SC)nc4C)ccn3)cc2)c1
[3]; at 1 µM
  % of control: 91%
[3]; at 5 µM
  % of control: 74%

## O=C(NOC[C@H](O)CO)c1ccc(F)c(F)c1Nc1ccc(I)cc1F
[4]
  % of control: 100%

## CC(=O)Nc1cccc(-n2c(=O)n(C3CC3)c(=O)c3c(Nc4ccc(I)cc4F)n(C)c(=O)c(C)c32)c1
[5]
  % of control: 104%
[6]
  % of control: 101%

## CNC(=O)Nc1ccc(-c2nc(N3CC4CCC(C3)O4)c3cnn(C4CCC5(CC4)OCCO5)c3n2)cc1
[7]
  % of control: 100%

## Cc1cc(F)c(C(=O)Nc2cccc(-c3nncn3C(C)C)n2)cc1-n1cnc(C2CC2)c1
[8]
  % of control: 97%

## CN1Cc2nccc(-c3cn(C)nc3-c3ccc(F)cc3)c2C1=O
[9]
  % of inhibition: 9%

## O[C@H]1CC[C@H](Nc2ncc3nc(Nc4c(F)cc(F)cc4F)n([C@H]4CCOC4)c3n2)CC1
[10]
  % of control: 74%
